Among the data in ChEMBL document CHEMBL1143535 (Bioorg Med Chem Lett, 2005) are Ki values, retold here.

Where “and” joins values, the source holds several entries; their conditions need not be identical. Equal entries are not always repeated.

This assay deals with T1, Muscarinic acetylcholine receptor M2 (Rattus norvegicus, UniProt P10980).
T1 sequence (P10980 whole entry): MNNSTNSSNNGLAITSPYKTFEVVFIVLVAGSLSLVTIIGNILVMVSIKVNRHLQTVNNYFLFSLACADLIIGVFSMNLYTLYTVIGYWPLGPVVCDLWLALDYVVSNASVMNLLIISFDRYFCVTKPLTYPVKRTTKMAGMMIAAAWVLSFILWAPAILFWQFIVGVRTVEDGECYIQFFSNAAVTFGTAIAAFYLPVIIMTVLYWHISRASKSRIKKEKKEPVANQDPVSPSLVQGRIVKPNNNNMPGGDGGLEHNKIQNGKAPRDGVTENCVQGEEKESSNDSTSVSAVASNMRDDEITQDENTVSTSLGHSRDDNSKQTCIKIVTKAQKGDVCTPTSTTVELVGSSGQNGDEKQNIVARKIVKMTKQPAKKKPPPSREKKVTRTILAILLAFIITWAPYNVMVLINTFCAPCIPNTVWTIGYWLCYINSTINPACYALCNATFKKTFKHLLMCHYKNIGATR
The assay can be described thus: Affinity for rat Muscarinic acetylcholine receptor M2.
Turning to `Cc1ccc(O)c(C(CCN2C[C@H]3C[C@H]3C2C)c2ccccc2)c1` (stereo not given in full), the Ki – broadly, a measure of affinity in units of concentration, obtained from inhibition or displacement – is 0.034 µM and 0.042 µM. Turning to `Cc1ccc(OCc2ccccc2)c(C(CCN2C[C@@]3(C)C[C@@]3(C)C2)c2ccccc2)c1` (stereo not given in full), the Ki was greater than 10 µM.

In turn, `Cc1ccc(O)c(C(CCN2C[C@H]3C[C@@]3(C)C2)c2ccccc2)c1` (stereo not given in full) displayed a Ki of 0.221 µM. `O=C(NCC#CCN1CC2CC2C1)C(O)(c1ccc(F)cc1)c1ccc(F)cc1` (stereo not given) showed a Ki of 0.736 µM. For `O=C(NCC#CCN1CC2CC2C1)C(O)(c1ccccc1)c1ccccc1` (stereo not given), the affinity, expressed as Ki, was 0.639 µM. For the compound `Cc1ccc(OCc2ccccc2)c(C(CCN2C[C@H]3C[C@H]3C2)c2ccccc2)c1` (stereo not given in full), the Ki was greater than 10 µM. Take `Cc1ccc(OCc2ccccc2)c(C(CCN2C[C@H]3C[C@H]3C2C)c2ccccc2)c1` (stereo not given in full): the inhibition constant (Ki) is greater than 10 µM. As to `Cc1ccc(O)c(C(CCN2C[C@@]3(C)C[C@@]3(C)C2)c2ccccc2)c1` (stereo not given in full), the Ki is greater than 1 µM. Regarding `O=C(NCC#CCN1CC2CC2C1)C(O)(c1ccccc1)C1CCCCC1` (stereo not given), the Ki came out at 3.58 µM. With `Cc1ccc(O)c(C(CCN2CC3C[C@@H]3C2)c2ccccc2)c1` (single isomer, unassigned), the Ki is 0.105 µM.
